Converted amounts (≈) assume the structure as drawn.
What was measured:
[1] = hydroxy radical scavenging, orthophenanthroline Fe2+ oxidation method; assay type: biochemical
Description: The first extract of lingonberry from Example 7, containing 5.2 wt % of anthocyanin, 22.3 wt % of proanthocyanin, and 0.5 wt % of resveratrol, was dissolved in double-distilled water and diluted into solutions in serial concentrations of 0.5, 0.25, 0.125, 0.0625, 0.03125, 0.015625, and 0.0078125 mg/ml. Ascorbic acid was likewise diluted to serial concentrations of 2, 1, 0.5, 0.25, 0.125, and 0.0625 mg/ml. The anti-oxidation effect of lingonberry extracts was confirmed by determining the hydroxyl radical (.OH) and the scavenging effect of the test drug on the hydroxy radical using the orthophenanthroline Fe^2+ oxidation method.
The total reaction volume was 4.7 ml, and thus the final concentrations of ascorbic acid solution were 0.851, 0.426, 0.213, and 0.106 mg/ml, while the final concentrations of lingonberry extract were 0.106, 0.053, 0.027, 0.013 mg/ml. Measurements were obtained for five samples in each group, and the scavenging rates of .OH were calculated and averaged. In order to verify the reliability of this method, ascorbic acid, a known .OH scavenging agent was used as a positive control when evaluating the scavenging effect of the lingonberry extract on hydroxy radicals during the experiment.
In the reaction system of these experiments, the aqueous solution of lingonberry extract could bind with hydroxy radicals generated in the Fenton reaction, thus reducing oxidation of Fe^2+ by hydroxy radicals. Its effect on scavenging hydroxy radicals was evaluated by determining the absorbance value of the reaction system.

yeast = conditions: by activating Sir2 enzymatic expression; cited from earlier work

| SMILES | •OH scavenging rate (d) ([1]; final concentration 0.106 mg/ml) | •OH scavenging rate (d) ([1]; final concentration 0.213 mg/ml) | •OH scavenging rate (d) ([1]; final concentration 0.426 mg/ml) | •OH scavenging rate (d) ([1]; final concentration 0.851 mg/ml) | IC50, hydroxy radical scavenging ([1]; orthophenanthroline Fe2+ oxidation method) | increase of life span (yeast) |
| --- | --- | --- | --- | --- | --- | --- |
| O=C1O[C@H]([C@@H](O)CO)C(O)=C1O [ascorbic acid] | 24.44 ± 2.32 | 25.55 ± 2.10 | 40.49 ± 1.33 | 91.92 ± 0.77 | 307.8 µg/mL (≈ 1750 µM) | – |
| Oc1ccc(C=Cc2cc(O)cc(O)c2)cc1 [resveratrol] | – | – | – | – | – | about 70% |
